Data reported in patent US7846959B2, “Raf modulators and methods of use” (Exelixis, Inc., priority 2004, dated 2010).
pIC50: −log10 of the molar value. Read-outs that look alike come from different tables or passages of the source.

Legend:
[1] = molecular target: B-Raf (Homo sapiens, UniProt P15056); experiment: Luciferase-coupled chemiluminescence kinase assay (ATP consumption), B-Raf; format: biochemical
Procedure, shortened: (§1)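 Compound is first mixed with […] Raf enzyme in 20 mM Tris pH 7.5 containing 10 mM MgCl2, 0.03% TX-100 and 1 mM DTT (30 min, room temperature). ATP then starts a 3 h reaction, and unconsumed ATP is detected by chemiluminescence.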

[2] = molecular target: c-Raf (Homo sapiens, UniProt P04049); experiment: Luciferase-coupled chemiluminescence kinase assay (ATP consumption), c-Raf; format: biochemical
Procedure, shortened: as §1

[3] = read-out: bRaf (inhibition indicated as IC50)
[4] = read-out: cRaf-1 (inhibition indicated as IC50)

B-Raf, sequence (P15056 whole entry): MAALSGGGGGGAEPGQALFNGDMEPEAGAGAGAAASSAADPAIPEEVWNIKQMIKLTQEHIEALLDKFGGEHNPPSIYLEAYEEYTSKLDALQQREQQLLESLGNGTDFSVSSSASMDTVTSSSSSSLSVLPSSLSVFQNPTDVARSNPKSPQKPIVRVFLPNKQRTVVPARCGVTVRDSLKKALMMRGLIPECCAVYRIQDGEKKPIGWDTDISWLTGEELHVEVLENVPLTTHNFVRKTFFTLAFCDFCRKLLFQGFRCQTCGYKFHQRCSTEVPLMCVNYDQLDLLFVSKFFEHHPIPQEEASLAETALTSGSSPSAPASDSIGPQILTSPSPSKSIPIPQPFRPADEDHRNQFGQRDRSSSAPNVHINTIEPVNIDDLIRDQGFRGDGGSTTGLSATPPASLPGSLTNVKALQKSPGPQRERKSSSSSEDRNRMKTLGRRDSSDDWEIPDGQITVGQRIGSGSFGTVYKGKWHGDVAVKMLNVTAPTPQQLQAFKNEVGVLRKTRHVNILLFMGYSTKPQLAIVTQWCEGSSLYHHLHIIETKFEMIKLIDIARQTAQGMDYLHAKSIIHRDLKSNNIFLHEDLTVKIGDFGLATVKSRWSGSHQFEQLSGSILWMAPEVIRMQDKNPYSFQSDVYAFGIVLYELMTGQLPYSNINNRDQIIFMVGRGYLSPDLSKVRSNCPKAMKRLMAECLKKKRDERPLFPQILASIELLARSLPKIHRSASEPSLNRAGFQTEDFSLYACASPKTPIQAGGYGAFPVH
c-Raf, sequence (P04049 whole entry): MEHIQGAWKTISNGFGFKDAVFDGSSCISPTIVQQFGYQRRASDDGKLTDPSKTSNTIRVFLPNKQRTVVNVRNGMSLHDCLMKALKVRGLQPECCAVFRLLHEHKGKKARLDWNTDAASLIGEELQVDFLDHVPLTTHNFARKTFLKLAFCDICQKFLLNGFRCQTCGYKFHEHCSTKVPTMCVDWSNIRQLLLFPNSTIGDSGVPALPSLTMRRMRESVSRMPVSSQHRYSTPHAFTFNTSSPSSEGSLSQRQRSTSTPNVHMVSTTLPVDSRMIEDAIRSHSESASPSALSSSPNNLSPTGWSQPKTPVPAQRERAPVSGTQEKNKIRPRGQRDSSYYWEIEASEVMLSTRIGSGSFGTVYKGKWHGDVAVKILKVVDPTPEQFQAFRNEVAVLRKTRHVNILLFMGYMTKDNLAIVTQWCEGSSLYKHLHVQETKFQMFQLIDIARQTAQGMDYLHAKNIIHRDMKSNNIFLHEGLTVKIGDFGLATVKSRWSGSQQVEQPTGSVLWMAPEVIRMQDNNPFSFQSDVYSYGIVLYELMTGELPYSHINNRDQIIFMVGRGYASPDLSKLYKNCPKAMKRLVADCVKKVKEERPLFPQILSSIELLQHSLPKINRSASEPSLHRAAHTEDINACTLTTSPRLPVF

pIC50 [1, 3] | pIC50 [2, 4] | pIC50 ([1]; read-out: bRaf IC50) | pIC50 ([2]; read-out: cRaf-1 IC50) | SMILES
5.00 to 6.00 | 5.00 to 6.00 | – | – | COC(=O)Nc1nc2ccc(C(=O)c3ccccc3NC(=O)c3ccccc3)cc2[nH]1 [Entry 289, methyl [6-({2-[(phenylcarbonyl)amino]phenyl}carbonyl)-1H-benzimidazol-2-yl]carbamate]
– | – | ≤ 5.00 | ≤ 5.00 | O=C1COc2ccc(C3(O)c4ccccc4C(=O)N3c3ccc(F)c(C(F)(F)F)c3)cc2N1 (centres unmarked) [Entry 64, 6-{2-[4-fluoro-3-(trifluoromethyl)phenyl]-1-hydroxy-3-oxo-2,3-dihydro-1H-isoindol-1-yl}-2H-1,4-benzoxazin-3(4H)-one]
– | – | ≤ 5.00 | ≤ 5.00 | O=C1COc2ccc(C3(O)c4ccccc4C(=O)N3c3cccc(-c4ccccc4)c3)cc2N1 (centres unmarked) [Entry 85, 6-(2-biphenyl-3-yl-1-hydroxy-3-oxo-2,3-dihydro-1H-isoindol-1-yl)-2H-1,4-benzoxazin-3(4H)-one]
– | – | > 7.00 | > 7.00 | CCC(=O)Nc1nc2cc(C3(O)c4ccccc4C(=O)N3Cc3ccccc3)ccc2[nH]1 (centres unmarked) [Entry 176, N-{5-[1-hydroxy-3-oxo-2-(phenylmethyl)-2,3-dihydro-1H-isoindol-1-yl]-1H-benzimidazol-2-yl}propanamide]
> 7.00 | > 7.00 | – | – | C#Cc1cc(N2C(=O)c3ccccc3C2(O)c2ccc3[nH]c(NC(=O)OC)nc3c2)c(F)cc1F (centres unmarked) [Entry 352, methyl {5-[2-(5-ethynyl-2,4-difluorophenyl)-1-hydroxy-3-oxo-2,3-dihydro-1H-isoindol-1-yl]-1H-benzimidazol-2-yl}carbamate]
– | – | ≤ 5.00 | ≤ 5.00 | O=C1COc2ccc(C3(O)c4ccccc4C(=O)N3Cc3ccccc3Br)cc2N1 (centres unmarked) [Entry 37, 6-{2-[(2-bromophenyl)methyl]-1-hydroxy-3-oxo-2,3-dihydro-1H-isoindol-1-yl}-2H-1,4-benzoxazin-3(4H)-one]
– | – | > 7.00 | > 7.00 | COC(=O)Nc1nc2cc(C3(O)c4ccccc4C(=O)N3Cc3ccccc3C)ccc2[nH]1 (centres unmarked) [Entry 133, methyl (5-{1-hydroxy-2-[(2-methylphenyl)methyl]-3-oxo-2,3-dihydro-1H-isoindol-1-yl}-1H-benzimidazol-2-yl)carbamate]
– | – | ≤ 5.00 | ≤ 5.00 | COC(=O)Nc1nc2ccc(C3(O)c4ccccc4C(=O)N3Cc3ccccc3)cc2n1C (centres unmarked) [Entry 107, methyl {6-[1-hydroxy-3-oxo-2-(phenylmethyl)-2,3-dihydro-1H-isoindol-1-yl]-1-methyl-1H-benzimidazol-2-yl}carbamate]
– | – | ≤ 5.00 | ≤ 5.00 | COC(=O)Nc1nc2cc(C3(O)c4ccccc4C(=O)N3Cc3ccc(OC)cc3)ccc2[nH]1 (centres unmarked) [Entry 118, methyl [5-(1-hydroxy-2-{[4-(methyloxy)phenyl]methyl}-3-oxo-2,3-dihydro-1H-isoindol-1-yl)-1H-benzimidazol-2-yl]carbamate]
> 7.00 | > 7.00 | – | – | C#Cc1cccc(NC(=O)c2ccccc2C(=O)c2ccc3nc(NC(=O)OC)[nH]c3c2)c1F [Entry 414, methyl {6-[(2-{[(3-ethynyl-2-fluorophenyl)amino]carbonyl}phenyl)carbonyl]-1H-benzimidazol-2-yl}carbamate]
– | – | 5.00 to 6.00 | 5.00 to 6.00 | COC(=O)Nc1nc2cc(C3(O)c4ccccc4C(=O)N3CC(C)(C)C)ccc2[nH]1 (centres unmarked) [Entry 154, methyl {5-[2-(2,2-dimethylpropyl)-1-hydroxy-3-oxo-2,3-dihydro-1H-isoindol-1-yl]-1H-benzimidazol-2-yl}carbamate]
5.00 to 6.00 | 5.00 to 6.00 | – | – | COC(=O)Nc1nc2cc(C3(O)c4ccccc4C(=O)N3c3cccc(N4CCOCC4)c3)ccc2[nH]1 (centres unmarked) [Entry 290, methyl {5-[1-hydroxy-2-(3-morpholin-4-ylphenyl)-3-oxo-2,3-dihydro-1H-isoindol-1-yl]-1H-benzimidazol-2-yl}carbamate]
– | – | ≤ 5.00 | ≤ 5.00 | CCOC(=O)c1cccc(N2C(=O)c3ccccc3C2(O)c2ccc3c(c2)NC(=O)CO3)c1 (centres unmarked) [Entry 70, ethyl 3-[1-hydroxy-3-oxo-1-(3-oxo-3,4-dihydro-2H-1,4-benzoxazin-6-yl)-1,3-dihydro-2H-isoindol-2-yl]benzoate]
